Tested on: TNF-α
Assay: Inhibition of TNF-α secretion by LPS-induced RAW264.7 macrophages (ELISA)
Type: cell-based
Conditions: Mus musculus, RAW264.7, LPS 1 μg/mL, 24 h (Table 1), read-out: TNF-α inhibition rate (%)
Description: This test example simulated the inflammatory response at a cellular level in vitro, that is, the inflammatory response of mouse peritoneal macrophages (RAW264.7) was induced by lipopolysaccharide (LPS) to produce models of the inflammatory factors, and an inhibitory effect of the effective part extract of Monochasma savatieri on the TNF-α secreted by cells was detected by ELISA, to evaluate an anti-inflammatory effect thereof.
Test reagents were: RAW264.7 cells; a DMEM medium, a 1640 medium (Invitrogen), fetal bovine serum (Gibco); LPS(Sigma); an ELISA kit (ebioscience), and a CCK8 reagent (Taosu, Beijing).
Test samples were: the B2-13, B2-15, B2-16, and B2-16-15 prepared in Example 1; a positive drug: dexamethasone.
Test method: • 1. Cell culture: the RAW264.7 cells were cultured in the 1640+10% FBS at 37° C. with 5% CO2, and the cells were passaged when showing logarithmic growth. When reaching 80% confluency, the cells were plated in a 96-well plate (density: 2×10^4 cells/well) at 100 μL/well, and then incubated at 37° C. with 5% CO2 for 12 h to 18 h. • 2. […]
Evaluation index: an inhibition rate of the inflammatory factor TNF-α. OD values were read at 450 nm and 570 nm, a standard curve was plotted, a concentration of TNF-α in the medium was calculated, and the inhibition rate and inhibitory activity IC50 value of the samples on the TNF-α produced by the cells were calculated. […]

For `C[C@@H]1C[C@H]2[C@@H]3CCC4=CC(=O)C=C[C@]4(C)[C@@]3(F)[C@@H](O)C[C@]2(C)[C@@]1(O)C(=O)CO` [Dexamethasone, dexamethasone], the inhibition at 10 µM was 58.7%.

Reference: patent US12251413B2, “Use of effective part extract of Monochasma savatieri in preparation of drug for treating inflammatory disease or tumor” (Harbin Kanglong Pharmaceutical Co., Ltd., priority 2022, dated 2025)
